Results published in patent US7291353B2, “Anti-peptic ulcer activity of an extract of a flower of Woodfordia fruticosa” (Council of Scientific and Industrial Research, priority 2002, dated 2007).

Columns and labels:
[1] = test system: frog gastric mucosa (histamine stimulated acid secretion); assay: Frog Chamber Study: histamine-stimulated acid secretion of chambered frog gastric mucosa; set-up: species or system Rana hexadactyla; key to Comment (qualitative rank score): the rank score for both cimetidine and omeprazole (considered as 100%) were given as +8; details: for concentration enough to block almost complete acid secretion: 0.1-0.2 mM histamine; for Comment (qualitative rank score): cimetidine and omeprazole (100%) = +8
Procedure: Frog Chamber Study: The in organ experiments using the whole frog stomach to assess the anti-HCl secreting potential of extracts and their fractions were carried out employing Frog Chamber Model (for detail about the logic of the experiment and the information to be generated.
Frog Chamber Study: The study is based on the principle of ‘No Acid No Ulcer’. […] In this in vitro study, frog stomach is mounted in a plastic tube (Using Chamber Study). Employing histamine as the ulcerogen (final common mediator of all the physiological secretagogues), the rate and extent of proton secretion are quantitatively assessed as a function of the amount of herbal preparation and duration of treatment.
The experimental approach, as standardized through a series of experiments with more than 200 plant extracts, has been to measure, over time, (i) basal acid secretion, (ii) histamine-stimulated acid secretion, (iii) extract-induced (two doses) acid secretion, followed by (iv) extract-withdrawn acid secretion. For a particular stomach, after the basal secretion level is known, histamine is inserted from the nutrient side to see maximum acid secreting potential. Thereafter, an extract is inserted (first lower dose and then higher dose) from the nutrient side in presence of continuous supply of histamine to mimic ulcerative situation, followed by withdrawal of the extract by washing the nutrient side with histamine-containing nutrient medium. This latter phase is expected to generate information regarding the efficacy of the extract, upon its withdrawal, towards inhibiting the continuously existing acid secreting phase.
Experiments are carried out with in vitro preparations of gastric mucosa mounted over one end of a plastic tube (mounted area is 1.76 cm^2) with the mucosal surface facing out. The mounted tissue is placed vertically inside a 25-ml container. The nutrient solution is regular Frog Ringer solution and the luminal side (secretory side) is bathed in an unbuffered NaCl solution. The volumes of nutrient and mucosal solutions are adjusted in a way so as to be able to maintain constant hydrostatic pressure in the chamber throughout the duration of the experiment. Both solutions are slowly and continuously bubbled with O2 during the entire duration of the experiment. The mucosal solution is slowly and continuously stirred with a magnetic stirrer and collected at 15-min intervals in thoroughly washed clean vials.

[2] = test system: Helicobacter pylori avirulent strain 80A; assay: Anti H. pylori Activity, Disc Diffusion Sensitivity Test, strain 80A; format: cell-based; details: 0.5 mg/disc; one range stated for both the strains (80A)
[3] = test system: Helicobacter pylori virulent strain 121 A; assay: Anti H. pylori Activity, Disc Diffusion Sensitivity Test, strain 121A; format: cell-based; details: 0.5 mg/disc; one range stated for both the strains (121A)
Gastric H^+, K^+-ATPase = biological target: T1, Gastric H^+, K^+-ATPase (Sus scrofa, UniProt P19156); assay: Anti Gastric Proton Pump Activity Study; format: biochemical, pig; details: dose range of 0.3-3.0 mg/assay
T1 construct: These membranes are primarily enriched in tubulovescicular and apical membranes; from tissue; host or cells: pig stomach (gastric mucosa), tubulovesicular and apical membranes
T1 sequence (P19156 2-1034 limits assumed): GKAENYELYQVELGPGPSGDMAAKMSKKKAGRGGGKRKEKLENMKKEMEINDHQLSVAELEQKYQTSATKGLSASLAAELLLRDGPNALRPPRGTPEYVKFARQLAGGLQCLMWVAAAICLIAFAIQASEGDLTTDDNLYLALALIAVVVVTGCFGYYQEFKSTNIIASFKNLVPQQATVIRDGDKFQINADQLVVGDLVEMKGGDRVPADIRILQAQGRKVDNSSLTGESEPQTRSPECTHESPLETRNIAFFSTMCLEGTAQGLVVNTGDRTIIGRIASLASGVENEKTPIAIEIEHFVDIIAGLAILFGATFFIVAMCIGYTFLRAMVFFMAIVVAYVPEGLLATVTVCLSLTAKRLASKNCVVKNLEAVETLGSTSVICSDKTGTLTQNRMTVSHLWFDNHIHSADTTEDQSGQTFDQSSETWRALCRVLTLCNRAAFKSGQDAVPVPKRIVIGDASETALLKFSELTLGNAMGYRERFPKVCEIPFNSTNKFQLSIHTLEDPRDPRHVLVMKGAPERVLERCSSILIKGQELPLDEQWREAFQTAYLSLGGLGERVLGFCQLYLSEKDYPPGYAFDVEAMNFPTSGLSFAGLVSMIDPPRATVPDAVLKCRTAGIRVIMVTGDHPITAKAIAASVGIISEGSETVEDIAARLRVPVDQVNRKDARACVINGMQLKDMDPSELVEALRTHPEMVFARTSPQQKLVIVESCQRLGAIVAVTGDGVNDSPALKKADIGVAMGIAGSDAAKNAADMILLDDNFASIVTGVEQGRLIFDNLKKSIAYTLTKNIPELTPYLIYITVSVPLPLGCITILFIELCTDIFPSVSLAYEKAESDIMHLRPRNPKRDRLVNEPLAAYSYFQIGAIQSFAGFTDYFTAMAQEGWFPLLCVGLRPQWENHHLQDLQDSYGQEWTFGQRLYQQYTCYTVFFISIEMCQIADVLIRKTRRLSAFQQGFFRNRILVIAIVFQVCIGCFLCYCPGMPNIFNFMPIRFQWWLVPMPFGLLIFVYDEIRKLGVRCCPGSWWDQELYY
T1 sequence (P18434 whole entry partner): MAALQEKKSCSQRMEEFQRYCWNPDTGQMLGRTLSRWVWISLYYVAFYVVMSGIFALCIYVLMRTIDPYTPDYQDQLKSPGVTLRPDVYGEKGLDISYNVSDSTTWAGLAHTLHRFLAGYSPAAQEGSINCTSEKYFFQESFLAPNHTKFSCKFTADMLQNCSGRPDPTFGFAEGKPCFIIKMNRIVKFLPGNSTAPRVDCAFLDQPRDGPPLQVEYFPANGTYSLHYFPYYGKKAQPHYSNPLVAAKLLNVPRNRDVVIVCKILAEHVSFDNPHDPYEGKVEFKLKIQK
Source text: The applicant have selected one whole animal model—Cold Restraint Stress Ulcer in Rat (in vivo) to assess ulcer protection capacity of the extracts [Senay E. C. and Levine R. J., Proc Soc. Exp. Biol. Med. 124, 1221 (1967)], one isolated stomach model—Chambered Frog Gastric Mucosa (in organ) to assess anti HCl secretion potential [Durbin R. P. and Kircher A. B., Biochem. Biophys. Acta, 321, 553 (1973); Ray, T. K. and Tague L. R., Biochem. Pharmacol. 29, 2755 (1980); Ray et al., Proc. Natl. Acad. Sci. (USA) 79, 1448 (1982)], gastric proton pump inhibition model using pig gastric H^+, K^+-ATPase-rich apical and tubulovesicular membranes (in vitro) to examine enzyme inhibition [Bandopadhyay, S. Das, P. K., Wright, M. V., Nandi, J., Bhattacharyya, D. and Ray, T. K., J. Biol. Chem. 262, 5664 (1987)], and anti Helicobacter pylori activity assessment by Disc Diffusion Sensitivity Assay [Glupczynski, Y. In: Helicobacter pylori: techniques for clinical diagnosis & basic research, (Eds. Adrian Lee & Francis Megraud), W. B. Saunders Company Ltd., 1996, pp. 17-32].
3. […] K^+-stimulated activity, referred to as H^+, K^+-ATPase, was calculated as the difference between the activities obtained in presence of Mg^2+ plus K^+ and the basal activity (Mg^2+-ATPase) in presence of MG^2+ alone.

CN/C(=N/CCSCc1nc[nH]c1C)NC#N [cimetidine] was tested, and the “concentration enough to block almost complete acid secretion” value ([1]; added from nutrient side) was 0.1 to 0.2 mM and the “Comment (qualitative rank score)” value [1] was “+8”.

For CC[C@H]1OC(=O)[C@H](C)[C@@H](O[C@H]2C[C@@](C)(OC)[C@@H](O)[C@H](C)O2)[C@H](C)[C@@H](O[C@@H]2O[C@H](C)C[C@H](N(C)C)[C@H]2O)[C@](C)(OC)C[C@@H](C)C(=O)[C@H](C)[C@@H](O)[C@]1(C)O [clarithromycin], the inhibition zone diameter [2] was 2.3-2.7 cm and the inhibition zone diameter [3] was 2.3-2.7 cm.

In the case of COc1ccc2[nH]c([S+]([O-])Cc3ncc(C)c(OC)c3C)nc2c1 (stereo not shown) [omeprazole], the “concentration enough to block almost complete acid secretion” value ([1]; added from secretory side) is reported as 1 to 10 mM, the “Comment (qualitative rank score)” value [1] is reported as “+8” and the “% inhibition of H^+, K^+-ATPase” value (Gastric H^+, K^+-ATPase) is reported as 50-100%.
